Experiment [1] relates to Abeta 1-42 produced and secreted by human neuroblastoma SKNBE2 cells expressing hAPP695. Nature of the experiment: Cellular αLisa assay in SKNBE2 cells, Abeta 1-42. Particulars: 18 hours incubation; for IC50: Homo sapiens, SKNBE2, 18 h, read-out: Cellular αLisa assay in SKNBE2 cells Abeta 42 pIC50 (converted). It is filed as cell-based. As to the method:
(§1) Cellular αLisa Assay in Sknbe2 Cells In two αLisa assays the levels of Abeta total and Abeta 1-42 produced and secreted into the medium of human neuroblastoma SKNBE2 cells are quantified. The assay is based on the human neuroblastoma SKNBE2 expressing the wild type Amyloid Precursor Protein (hAPP695). The compounds are diluted and added to these cells, incubated for 18 hours and then measurements of Abeta 1-42 and Abeta total are taken. Abeta total and Abeta 1-42 are measured by sandwich αLisa. αLisa is a sandwich assay using biotinylated antibody AbN/25 attached to streptavidin coated beads and antibody Ab4G8 or cAb42/26 conjugated acceptor beads for the detection of Abeta total and Abeta 1-42 respectively. In the presence of Abeta total or Abeta 1-42, the beads come into close proximity. The excitation of the donor beads provokes the release of singlet oxygen molecules that trigger a cascade of energy transfer in the acceptor beads, resulting in light emission. Light emission is measured after 1 hour incubation (excitation at […] and emission at 615 nm).
(§2) A best-fit curve is fitted by a minimum sum of squares method to the plot of % Controlmin versus compound concentration. From this an IC50 value (inhibitory concentration causing 50% inhibition of activity) can be obtained.

Experiment [2] deals with T1, recombinant BACE1 protein (Homo sapiens, UniProt P56817).
T1 construct: recombinant BACE1 protein in a final concentration of 0.04 μg/ml
Nature of the experiment: BACE1 biochemical FRET based assay. The conditions noted are these: 450 min at room temperature; for IC50: pH 5.0, read-out: Biochemical FRET based assay pIC50 (converted).
Text: (§3) This assay is a Fluorescence Resonance Energy Transfer Assay (FRET) based assay. The substrate for this assay is an APP derived 13 amino acids peptide that contains the ‘Swedish’ Lys-Met/Asn-Leu mutation of the amyloid precursor protein (APP) beta-secretase cleavage site. This substrate also contains two fluorophores: (7-methoxycoumarin-4-yl) acetic acid (Mca) is a fluorescent donor with excitation wavelength at 320 nm and emission at 405 nm and 2,4-Dinitrophenyl (Dnp) is a proprietary quencher acceptor. […] Upon cleavage by BACE1, the fluorophore Mca is separated from the quenching group Dnp, restoring the full fluorescence yield of the donor. The increase in fluorescence is linearly related to the rate of proteolysis.
Briefly in a 384-well format recombinant BACE1 protein in a final concentration of 0.04 μg/ml is incubated for 450 minutes at room temperature with 20 μM substrate in incubation buffer (50 mM Citrate buffer pH 5.0, 0.05% PEG) in the presence of compound or DMSO. Next the amount of proteolysis is directly measured by fluorescence measurement (excitation at 320 nm and emission at 405 nm) at different incubation times (0, 30, 60, 90, 120 and 450 min). For every experiment a time curve (every 30 min between 0 min and 120 min) is used to determine the time where we find the lowest basal signal of the high control. The signal at this time (Tx) is used to subtract from the signal at 450 min. Results are expressed in RFU, as difference between T450 and Tx.
as §2

Experiment [3] concerns the target T2, recombinant BACE2 protein (Homo sapiens, UniProt Q9Y5Z0).
T2 construct: recombinant BACE2 protein in a final concentration of 0.4 μg/ml
T2 sequence (Q9Y5Z0 63-518): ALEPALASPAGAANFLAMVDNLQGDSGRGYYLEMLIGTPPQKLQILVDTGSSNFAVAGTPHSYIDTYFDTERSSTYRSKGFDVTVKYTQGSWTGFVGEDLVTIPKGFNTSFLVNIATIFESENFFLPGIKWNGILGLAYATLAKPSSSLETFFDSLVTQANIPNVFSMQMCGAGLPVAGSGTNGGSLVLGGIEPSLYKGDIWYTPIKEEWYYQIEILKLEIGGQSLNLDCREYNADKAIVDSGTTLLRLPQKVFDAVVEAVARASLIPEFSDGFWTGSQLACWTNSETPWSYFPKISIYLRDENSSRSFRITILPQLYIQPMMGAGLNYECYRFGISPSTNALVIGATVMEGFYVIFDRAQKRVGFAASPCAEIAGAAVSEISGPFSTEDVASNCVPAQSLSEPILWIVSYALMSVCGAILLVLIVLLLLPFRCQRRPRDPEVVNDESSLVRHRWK
Put plainly: BACE2 biochemical FRET based assay. Particulars: 450 min at room temperature; for IC50: pH 5.0, read-out: Biochemical FRET based assay pIC50 (converted).
Text: as §3, with “assay” for “assay is an APP derived 13 amino acids peptide that”, “the beta-secretase,” for “BACE1,”
Briefly in a 384-well format recombinant BACE2 protein in a final concentration of 0.4 μg/ml is incubated for 450 minutes at room temperature with […] substrate in incubation buffer (50 mM Citrate buffer pH 5.0, 0.05% PEG, no DMSO) in the absence or presence of compound. Next the amount of proteolysis is directly measured by fluorescence measurement at T=0 and T=450 (excitation at 320 nm and emission at 405 nm). Results are expressed in RFU (Relative Fluorescence Units), as difference between T450 and TO.
as §2

For another experiment, the target named is β-secretase I (BACE1) (Homo sapiens, UniProt P56817). Put plainly: Automated (CyclOps) biochemical assay BACE1.
The target in the next experiment is T3, β-secretase II (BACE2) (Homo sapiens, UniProt Q9Y5Z0).
T3 sequence (Q9Y5Z0 63-518): T2 sequence (Q9Y5Z0 63-518)
Nature of the experiment: Automated (CyclOps) biochemical assay BACE2.

Experiment [4] concerns Abeta total produced and secreted by human neuroblastoma SKNBE2 cells expressing hAPP695. Put plainly: Cellular αLisa assay in SKNBE2 cells, Abeta total. Format: cell-based. Particulars: 18 hours incubation, read-out: Cellular αLisa assay in SKNBE2 cells Abeta total pIC50 (converted). As for the experimental part:
as §1, §2

These results are taken from patent US20190389882A1, “INHIBITORS OF BETA SECRETASE” (Janssen Pharmaceutica NV, priority 2017, published 2019).

pIC50: −log10 of the molar value.

β-secretase I (BACE1), sequence (P56817 46-501): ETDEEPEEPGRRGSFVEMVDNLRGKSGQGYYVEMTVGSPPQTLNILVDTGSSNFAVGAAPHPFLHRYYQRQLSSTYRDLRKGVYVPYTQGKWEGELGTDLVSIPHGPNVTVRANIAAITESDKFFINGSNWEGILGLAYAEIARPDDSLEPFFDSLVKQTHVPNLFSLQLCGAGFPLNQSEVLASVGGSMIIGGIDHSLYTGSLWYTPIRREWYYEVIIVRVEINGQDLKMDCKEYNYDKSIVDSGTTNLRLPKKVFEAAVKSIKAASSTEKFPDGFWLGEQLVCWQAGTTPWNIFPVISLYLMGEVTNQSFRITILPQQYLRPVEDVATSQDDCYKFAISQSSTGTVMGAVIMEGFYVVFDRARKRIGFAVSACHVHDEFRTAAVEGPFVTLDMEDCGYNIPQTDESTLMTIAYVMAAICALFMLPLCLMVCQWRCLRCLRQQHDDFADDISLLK
T1 sequence (P56817 46-501): as above

Regarding `COc1ncc(CNC(=O)c2cc(C)no2)c2c1C[C@]1(c3ccc(F)cc3F)N=C(N)SC[C@@H]1C2` [Compound 32], the “Cellular αLisa assay in SKNBE2 cells Abeta 42 pIC50” value (“Cellular αLisa assay” below) in experiment [1] is reported as 7.41. Also, the IC50 was 110 nM in experiment [2] and 309 nM in experiment [3].

For the compound `COc1ncc(CNC(=O)c2ccncc2)c2c1C[C@]1(c3ccc(F)cc3F)N=C(N)SC[C@@H]1C2` [Compound 30], the “Cellular αLisa assay” value in experiment [1] was determined as 7.31. Further, the results for the IC50 in experiment [2] and in experiment [3] were 29.5 nM and 355 nM, respectively.

The term pIC50 denotes the negative decadic logarithm of the IC50, by convention in mol/L. Consider `COc1ncc(C(=O)N2CCC(C#N)CC2)c2c1C[C@]1(c3ccc(F)cc3F)N=C(N)SC[C@@H]1C2` [Compound 22], for which the pIC50 at β-secretase I (BACE1) was 7.46; at β-secretase II (BACE2), 6.45. Moreover, the IC50 is 85.1 nM in experiment [1], 129 nM in experiment [2] and 1100 nM in experiment [3].

In the case of `COc1ncc(C(=O)N2CCOCC2)c2c1C[C@]1(c3ccc(F)cc3F)N=C(N)SC[C@@H]1C2` [Compound 2], the results for the IC50 in experiment [1], in experiment [2] and in experiment [3] were 47.9 nM, 219 nM and 1510 nM, respectively.

On to `COc1ncc(CNC(=O)C2CC2)c2c1C[C@]1(c3ccc(F)cc3F)N=C(N)SC[C@@H]1C2` [Compound 31], for which the IC50 is 33.1 nM in experiment [1], 81.3 nM in experiment [2] and 105 nM in experiment [3].

On to `COc1ncc(C(=O)N2CCC(c3ccncc3)C2)c2c1C[C@]1(c3ccc(F)cc3F)N=C(N)SC[C@@H]1C2` (stereo partly shown) [Compound 28], for which the IC50 in experiment [1] was 28.8 nM; in experiment [2] it was 20.4 nM; in experiment [3], 977 nM.

As for `COc1ncc(C(=O)NC2CC2)c2c1C[C@]1(c3ccc(F)cc3F)N=C(N)SC[C@@H]1C2` [Compound 1a], the results for the pIC50 against β-secretase I (BACE1) and against β-secretase II (BACE2) were 7.40 and 7.14, respectively. Besides, the IC50 in experiment [1] is 19.1 nM; in experiment [2], 66.1 nM; in experiment [4], 22.9 nM; in experiment [3], 166 nM.

For the compound `COc1ncc(C(=O)Nc2cccnc2)c2c1C[C@]1(c3ccc(F)cc3F)N=C(N)SC[C@@H]1C2` [Compound 3], the IC50 in experiment [1] was 56.2 nM; in experiment [2] it was 75.9 nM; in experiment [3], 282 nM.

For the compound `COc1ncc(CNC(=O)c2ccncc2)c2c1C[C@]1(c3ccc(F)cc3F)N=C(N)SC[C@@H]1C2` [Compound 30a], the pIC50 against β-secretase I (BACE1) was 7.38; at β-secretase II (BACE2), 6.33. Also, the “Cellular αLisa assay” value in experiment [1] came to 7. The IC50 in experiment [2] was 66.1 nM; in experiment [4] it was 81.3 nM; in experiment [3], 692 nM.

Turning to `COc1ncc(CNC(=O)C2CC2)c2c1C[C@]1(c3ccc(F)cc3F)N=C(N)SC[C@@H]1C2` [Compound 31a], the pIC50 is 7.15 on β-secretase I (BACE1) and 7.06 against β-secretase II (BACE2). The “Cellular αLisa assay” value in experiment [1] was 7.39. Also, the IC50 in experiment [2] is 112 nM; in experiment [4], 43.7 nM; in experiment [3] it was 126 nM.

Take `COc1ncc(C(=O)NC2CC2)c2c1C[C@]1(c3ccc(F)cc3F)N=C(N)SC[C@@H]1C2` [Compound 1]: the IC50 in experiment [1] was 9.55 nM. Further, the “Biochemical FRET based assay pIC50” value in experiment [2] (pH 5.0) is reported as 7.12; in experiment [3] (pH 5.0) it was 6.77.

For `COc1ncc(CNC(=O)c2cc(C)no2)c2c1C[C@]1(c3ccc(F)cc3F)N=C(N)SC[C@@H]1C2` [Compound 32a], the figures for the pIC50 on β-secretase I (BACE1) and on β-secretase II (BACE2) were 7.20 and 6.76, respectively. Also, the “Cellular αLisa assay” value in experiment [1] is reported as 7.07. Further, the IC50 in experiment [2] was 182 nM; in experiment [4], 95.5 nM; in experiment [3], 589 nM.

For `COc1ncc(CNC(=O)c2nccnc2Cl)c2c1C[C@]1(c3ccc(F)cc3F)N=C(N)SC[C@@H]1C2` [Compound 48], the figures for the pIC50 against β-secretase I (BACE1) and against β-secretase II (BACE2) were 7.92 and 7.14, respectively. Besides, the IC50 is 16.6 nM in experiment [1], 21.9 nM in experiment [2] and 200 nM in experiment [3].

On to `COc1ncc(C(=O)N2CCOCC2)c2c1CC1(c3ccc(F)cc3F)N=C(N)SCC1C2` (stereo not shown) [Compound 2a], for which the pIC50 on β-secretase I (BACE1) was 7.24; against β-secretase II (BACE2) it was 6.49. Also, the IC50 is 46.8 nM in experiment [1], 240 nM in experiment [2], 50.1 nM in experiment [4] and 1450 nM in experiment [3].
